Results on 1 compound are retold here after BindingDB's records for doi:10.1021/jm00214a010 (1977).

This test addresses T1, Aminopeptidase B (Rattus norvegicus, UniProt O09175).
T1 sequence (O09175 whole entry): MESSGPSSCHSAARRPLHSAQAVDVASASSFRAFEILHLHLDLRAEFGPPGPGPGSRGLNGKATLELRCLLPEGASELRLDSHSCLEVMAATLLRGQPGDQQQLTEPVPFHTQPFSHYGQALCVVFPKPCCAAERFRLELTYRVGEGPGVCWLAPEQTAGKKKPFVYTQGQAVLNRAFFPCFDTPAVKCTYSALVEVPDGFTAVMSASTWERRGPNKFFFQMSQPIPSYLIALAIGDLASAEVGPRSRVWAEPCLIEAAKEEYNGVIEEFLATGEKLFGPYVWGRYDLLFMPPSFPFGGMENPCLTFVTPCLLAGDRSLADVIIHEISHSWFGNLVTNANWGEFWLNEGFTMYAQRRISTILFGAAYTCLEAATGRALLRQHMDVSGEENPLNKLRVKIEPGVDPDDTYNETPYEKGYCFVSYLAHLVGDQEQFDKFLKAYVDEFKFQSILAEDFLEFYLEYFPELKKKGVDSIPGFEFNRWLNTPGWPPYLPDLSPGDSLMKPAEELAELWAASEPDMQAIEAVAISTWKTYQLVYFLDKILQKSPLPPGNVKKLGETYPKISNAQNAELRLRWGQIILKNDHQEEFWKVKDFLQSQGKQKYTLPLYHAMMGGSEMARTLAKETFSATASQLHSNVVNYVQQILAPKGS
Briefly: Inhibition of rat liver aminopeptidase B using 0.2 mM […] by colorimetry.

Take `CC(C)CCNC(=O)[C@@H](O)[C@H](N)Cc1ccccc1`: it took 640 µM to reach half-maximal inhibition (IC50).
